Target: T1, h-11βHSD1 (Homo sapiens, UniProt P28845)
T1 construct: made in house
Test: 11βHSD1 enzyme assay (scintillation proximity assay, 3H-cortisone to 3H-cortisol)
Assay type: biochemical
Conditions: extract of yeast transformed with h-11βHSD1; 120 nM 3H-cortisone, 4 mM β-NADPH, 60 min at 30° C., SPA
Procedure: Pharmacological Methods 11βHSD1 Enzyme Assay Materials
^3H-cortisone and anti-rabbit Ig coated scintillation proximity assay (SPA) beads were purchased from Amersham Pharmacia Biotech, β-NADPH was from Sigma and rabbit anti-cortisol antibodies were from Fitzgerald. An extract of yeast transformed with h-11βHSD1 (Hult et al., FEBS Lett, 441, 25 (1998)) was used as the source of enzyme. The test compounds were dissolved in DMSO (10 mM). All dilutions were performed in a buffer containing 50 mM TRIS-HCl (Sigma Chemical Co), 4 mM EDTA (Sigma Chemical Co), 0.1% BSA (Sigma Chemical Co), 0.01% Tween-20 (Sigma Chemical Co) and 0.005% bacitracin (Novo Nordisk A/S), pH=7.4. Optiplate 96 wells plates were supplied by Packard. The amount of ^3H-cortisol bound to the SPA beads was measured on TopCount NXT, Packard.
h-11βHSD1, 120 nM ^3H-cortisone, 4 mM β-NADPH, antibody (1:200), serial dilutions of test compound and SPA particles (2 mg/well) were added to the wells. The reaction was initiated by mixing the different components and was allowed to proceed under shaking for 60 min at 30° C. The reaction was stopped be the addition of 10 fold excess of a stopping buffer containing 500 μM carbenoxolone and 1 μM cortisone. Data was analysed using GraphPad Prism software.

T1 sequence (P28845 whole entry): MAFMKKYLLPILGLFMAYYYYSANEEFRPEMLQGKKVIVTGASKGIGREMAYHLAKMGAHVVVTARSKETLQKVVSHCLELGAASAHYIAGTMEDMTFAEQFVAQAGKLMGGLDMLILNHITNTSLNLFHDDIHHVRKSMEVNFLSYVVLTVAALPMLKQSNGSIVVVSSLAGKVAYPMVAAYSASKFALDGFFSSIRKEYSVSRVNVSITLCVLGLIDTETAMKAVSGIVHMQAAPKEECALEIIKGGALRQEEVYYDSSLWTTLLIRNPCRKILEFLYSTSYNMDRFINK

Structure (SMILES)	IC50 [nM]
O=C(c1ccc(O[C@H]2CC[C@@H](NS(=O)(=O)c3ccccn3)CC2)cc1)N1CCCC2CCCCC21 (stereo partly drawn) [Example 4c, Cis-Pyridine-2-sulfonic acid {4-[4-(octahydro-quinoline-1-carbonyl)-phenoxy]-cyclo-hexyl}-amide]	51
O=C(NC1C2CC3CC(C2)CC1C3)c1ccc(N2CC3CC2CO3)cc1 (centres unmarked) [Example H, 4-(2-Oxa-5-aza-bicyclo[2.2.1]hept-5-yl)-N-adamantan-2-yl-benzamide]	43
CCOC(=O)C1CCC(Oc2ccc(C(=O)N3CC4(C)CC3CC(C)(C)C4)cc2)CC1 (centres unmarked) [Example 1a, 4-[4-(1,3,3-Trimethyl-6-aza-bicyclo[3.2.1]octane-6-carbonyl)-phenoxy]-cyclo-hexanecarboxylic acid ethyl ester]	130
O=C(NC1C2CC3CC(C2)CC1C3)c1ccc(OC2CCN(C(=O)C3CC3)CC2)cc1 (centres unmarked) [Example 1b, 4-(1-Cyclopropanecarbonyl-piperidin-4-yloxy)-N-ada-mantan-2-yl-benzamide]	205
O=C(N[C@H]1CC[C@@H](Oc2ccc(C(=O)N3CCCC4CCCCC43)cc2)CC1)C1CC1 (stereo partly drawn) [Example 6c, Cis-Cyclopropanecarboxylic acid {4-[4-(octahydro-quino-line-1-carbonyl)-phenoxy]-cyclohexyl}-amide]	120
CN(C(=O)c1ccc(OCC2CCN(S(=O)(=O)c3ccccn3)CC2)cc1)C1C2CC3CC1CC(O)(C3)C2 (centres unmarked) [Example 4f, N-(5-Hydroxy-adamantan-2-yl)-N-methyl-4-[1-(pyridine-2-sulfonyl)-piperidin-4-yl-methoxy]-benzamide]	1360
O=C(NC1C2CC3CC(C2)CC1C3)c1ccc(O[C@H]2CC[C@@H](NC(=O)C3CC3)CC2)cc1 (stereo partly drawn) [Example 5c, Cis-N-Adamantan-2-yl-4-[4-(cyclopropanecarbonyl-amino)-cyclohexyloxy]-benzamide]	158
CN(C)C(=O)C1CCC(Oc2ccc(C(=O)N3CC4(C)CC3CC(C)(C)C4)cc2)CC1 (centres unmarked) [Example 12a, 4-[4-(1,1,3,3-Trimethyl-6-aza-bicyclo[3.2.1]octane-6-carbonyl)-phenoxy]-cyclo-hexane carboxylic acid di-methylamide]	111
O=C(c1ccc(N2[C@@H]3CC[C@H]2CC(Oc2ccccn2)C3)cc1)N1CCCC2CCCCC21 (stereo partly drawn) [Example 2h, (Octahydro-quinolin-1-yl)-{4-[(1S,5R)-3-(pyridin-2-yloxy)-8-aza-bicyclo[3.2.1]oct-8-yl]-phenyl}-methanone]	359
CC1(C)CC2CC(C)(CN2C(=O)c2ccc(O[C@H]3CC[C@@H](C(=O)O)CC3)cc2)C1 (stereo partly drawn) [Example 5a, Cis-4-[4-(1,3,3-trimethyl-6-aza-bicyclo [3.2.1]octane-6-carbonyl)-phenoxy]-cyclo-hexanecarboxylic acid]	588
O=C(NC1C2CC3CC(C2)CC1C3)c1ccc(OC2CCC(O)CC2)cc1 (centres unmarked) [Example 1d, N-Adamantan-2-yl-4-(4-hydroxy-cyclohexyloxy)-benzamide]	75
O=C(O)c1ccc(S(=O)(=O)N2CCC(COc3ccc(C(=O)N4CCCC5CCCCC54)cc3)CC2)cc1 (centres unmarked) [Example 9f, 4-{4-[4-(Octahydro-quinoline-1-carbonyl)-phenoxymethyl]-piperidine-1-sulfonyl}-benzoic acid]	163
NC(=O)C1CCC(Oc2ccc(C(=O)N3CCCC4CCCCC43)cc2)CC1 (centres unmarked) [Example 13a, 4-[4-(Octahydro-quinoline-1-carbonyl)-phenoxy]-cyclo-hexanecarboxylic acid amide]	73
CC1(C)CC2CC(C)(CN2C(=O)c2ccc(O[C@H]3CC[C@H](C(=O)O)CC3)cc2)C1 (stereo partly drawn) [Example 6a, Trans-4-{4-(1,3,3-trimethyl-6-aza-bicyclo [3.2.1]oct-ane6-carbonyl)-phenoxy]-cyclo-hexanecarboxylic acid]	1200
O=C(O)c1ccc(OCC2CCC(Oc3ccc(C(=O)NC4C5CC6CC(C5)CC4C6)cc3)CC2)cc1 (centres unmarked) [Example 3e, 4-{4-[4-(Adamantan-2-yl-carbamoyl)-phenoxy]-cyclo-hexylmethoxy}-benzoic acid]	300
CC(C)(C)OC(=O)N1C[C@@H]2CC1CN2c1ccc(C(=O)N2CC3CCC(CC3)C2)cc1 (stereo in doubt) [Example 1h, (1S,4S)-5-[4-(3-Aza-bicyclo[3.2.2]nonane-3-carbonyl)-phenyl]-2,5-diaza-bicyclo[2.2.1]heptane-2-carboxylic acid tert-butyl ester]	389
O=C(NC1C2CC3CC(C2)CC1C3)c1ccc(OCC2CCC(O)CC2)cc1 (centres unmarked) [Example 1f, 4-(4-Hydroxy-cyclohexyl-methoxy)-N-adamantan-2-yl-benzamide]	465
Cn1cnc(S(=O)(=O)N2CCC(COc3ccc(C(=O)N4CCCC5CCCCC54)cc3)CC2)c1 (centres unmarked) [Example 2f, {4-[1-(1-Methyl-1H-imidazole-4-sulfonyl)-piperidin-4-yl-methoxy]-phenyl}-(octahydro-quinolin-1-yl)-methanone]	134
C=CCOC(=O)c1ccc(OCC2CCC(Oc3ccc(C(=O)NC4C5CC6CC(C5)CC4C6)cc3)CC2)cc1 (centres unmarked) [Example 4e, 4-{4-[4-(Adamantan-2-yl-carbamoyl)-phenoxy]-cyclo-hexylmethoxy}-benzoic acid allyl ester]	482
CN(C(=O)c1ccc(OC2CCC(NS(=O)(=O)c3ccccn3)CC2)cc1)C1C2CC3CC1CC(O)(C3)C2 (centres unmarked) [Example 7c, N-(5-Hydroxy-adamantan-2-yl)-N-methyl-4-[4-(pyridine-2-sulfonylamino)-cyclohexyl-oxy]-benzamide]	1120
CN(C(=O)c1ccc(OCC2CCN(S(=O)(=O)c3cn(C)cn3)CC2)cc1)C1C2CC3CC1CC(O)(C3)C2 (centres unmarked) [Example 6f, N-(5-Hydroxy-adamantan-2-yl)-N-methyl-4-[1-(1-methyl-1H-imidazole-4-sulfonyl)-piperidin-4-ylmethoxy]-benzamide]	2270
CC(C)CC(=O)N1CCC(Oc2ccc(C(=O)N3CC4CCCC3C4)cc2)CC1 (centres unmarked) [Example 5b, 1-{4-[4-(6-Aza-bicyclo[3.2.1]-octane-6-carbonyl)-phenoxy]-piperidin-1-yl}-3-methyl-butan-1-one]	1300
Cc1ccc(S(=O)(=O)NC(=O)N2CCC(Oc3ccc(C(=O)N4CC5CCC(CC5)C4)cc3)C2)cc1 (centres unmarked) [Example 3g, N-{3-[4-(3-Aza-bicyclo-[3.2.2]nonane-3-carbonyl)-phenoxy]-pyrrolidine-1-carbonyl}-4-methyl-benzenesulfonamide]	2820
O=C(O)C1CCC(Oc2ccc(C(=O)N3CC4CCC(CC4)C3)cc2)CC1 (centres unmarked) [Example 2a, 4-[4-(3-Aza-bicyclo[3.2.2]-nonane-3-carbonyl)-phen-oxy]-cyclohexane carbox-ylic acid]	1450
O=C(C1CC1)N1CCC(Oc2ccc(C(=O)N3CC4CCCC3C4)cc2)CC1 (centres unmarked) [Example 4b, (6-Aza-bicyclo[3.2.1]oct-6-yl)-[4-(1-cyclopropane-carbonyl-piperidin-4-yloxy)-phenyl]-methanone]	2310
O=C(c1ccc(OC2CCN(C(=O)C3CC3)CC2)cc1)N1CC2CCC(CC2)C1 [Example B, (3-Aza-bicyclo[3.2.2]non-3-yl)-[4-(1-cyclopropane-carbonyl-piperidin-4-yloxy)-phenyl]-methanone]	1350
